Experimental data taken from US7528132B2, “Kinase inhibitors” (Schering Corporation, priority 2005, dated 2009).

target: T1, Akt1 (Homo sapiens, UniProt P31749); assay: Akt1 kinase assay (33P phosphorylation of biotinylated peptide, Flash plates); format: biochemical; details: read-out: IC50 (AKT1 inhibition)
T1 construct: made in house; host or cells: Sf9 insect cells (baculovirus, pBlueBacHis2B)
From the text: The assay described below measures the phosphorylation of a biotinylated peptide by active recombinant Akt1 and other kinase isoforms. The biotinylated peptide contains a consensus sequence derived from Akt substrate Gsk3 (Glycogen synthase kinase 3). The ^33P-labeled peptide substrate was captured by streptavidin-coated Flash plates.
Active recombinant Akt1 was expressed in Sf9 insect cells and purified as described by Kumar et al., Biochim. Biophys. Acta. Jun. 15, 2001, 1526(3), 257-268. Biotinylated peptide of the sequence Bio-ahx-RPRAASF was purchased from Syn Pep (Dublin, Calif., USA).
Cloning and Expression of Human Akt1 Sf9 Cells
Human Akt1 cDNA was amplified from a marathon-ready human lung cDNA library (Clonetech) using nested oligo primers as described below. The first round of amplification was carried out using the following primers; Akt1F1 ([…]) and Akt1R1 (TCCATC […]) and for the second round amplification, the primers of the following sequence were used; Akt1F2 (GGATCCTCGG […]) and AKT1R2 (GGTACCATCGTC […]). The PCR product was subcloned into pCRScript plasmid as a BamHI/KpnI fragment and the sequence of the cDNA was confirmed by DNA sequencing. This plasmid was used as a template for reamplification of Akt1 using appropriate primers for subcloning into pBlueBaHis2B into BamH1/EcoRI sites to generate an in frame fusion to (His)6 tag and an anti-Xpress antibody epitope tag at the N-terminus. This construct was sequenced to verify the junction sequences and used for generating a recombinant baculovirus. Growth of the recombinant virus, amplification and determination of viral titer were carried out according to the instructions from the manufacturer (InVitrogen, CA).
Purification of Akt1 from Sf9 Cells
Viral stocks were used to infect large scale Sf9 cells at a multiplicity of infection (MOI) of 2.5. Cells were maintained at 27° C. for 60 h and okadaic acid was added to the cultures to a concentration of 50 nM. Cells were harvested 4 h hours later by centrifugation at 1200 rpm for 30 min followed by freezing at −80° C. until further use. All purification steps were carried out at 4° C. Whole cell pellets were suspended in buffer A (20 mM sodium phosphate buffer pH 7.8, 500 mM NaCl, 1 mM sodium vanadate, 5 mM sodium fluoride, 40 mM β-glycerophosphate, 10 mM imidazole and protease inhibitor cocktail) and lysed using a microfluidizer. The cell extract was centrifuged at 16,000×g for 10 min to remove the debris and directly loaded onto Ni-NTA Superflow resin using a FPLC pump operated at 1 ml/min. The column was washed once with buffer A, once with wash buffer B (20 mM sodium phosphate pH 6.0, 1 mM sodium vanadate, 5 mM sodium fluoride and protease cocktail) and once with wash buffer B containing 0.05% Tween-20 followed by washing with buffer A until OD260 returned to basal level. Proteins were eluted with buffer A containing 200 mM imidazole. Fractions were analyzed by electrophoresis on 10% denaturing polyacrylamide gels and fractions containing 85% pure protein band at 60 KDa were pooled and dialyzed against buffer C (20 mM Tris-HCl pH 7.5, 0.5 mM EDTA,-2 mM DTT, 145 mM NaCl, 0.1 mM sodium vanadate, 5 mM sodium fluoride, 10 mM, β-glycerophosphate and 20% glycerol). Purified protein was stored as aliquots at −80° C. Protein concentrations were determined using BCA protein assay reagent A (Catalog #23228). To examine the identity of the proteins, 2 μg of purified protein was electrophoresed on SDS-polyacrylamide gels and stained with coomassie blue dye or transferred to nitrocellulose membrane and probed with anti-Akt and anti-phospho-specific Akt antibodies using enhanced chemiluminescence (ECL) reagent according to the protocol described by the manufacturer (Amersham).
The kinase assay was performed in 96 well plates at room temperature. Assay solutions and plates were preincubated at room temperature for 5 min. […]

T1 sequence (P31749 whole entry): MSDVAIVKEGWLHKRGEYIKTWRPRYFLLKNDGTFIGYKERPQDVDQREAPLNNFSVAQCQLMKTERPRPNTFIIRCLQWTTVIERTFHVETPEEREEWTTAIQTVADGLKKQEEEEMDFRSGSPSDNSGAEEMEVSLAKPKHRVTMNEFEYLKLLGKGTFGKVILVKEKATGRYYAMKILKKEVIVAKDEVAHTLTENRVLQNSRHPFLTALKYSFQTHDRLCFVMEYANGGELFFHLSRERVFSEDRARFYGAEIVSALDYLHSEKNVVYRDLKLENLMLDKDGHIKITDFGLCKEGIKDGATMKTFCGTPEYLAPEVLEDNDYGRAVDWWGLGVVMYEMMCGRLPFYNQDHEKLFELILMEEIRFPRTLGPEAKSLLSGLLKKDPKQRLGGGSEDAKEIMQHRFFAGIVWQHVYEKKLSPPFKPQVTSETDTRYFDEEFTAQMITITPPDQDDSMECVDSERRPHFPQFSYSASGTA

`Clc1n[nH]c2ccc(-c3nncc(N4CCN[C@@H](Cc5ccccc5)C4)n3)cc12` [Compound 56, 5-[(S)-3-benzylpiperazin-1-yl]-3-(3-chloroindazol-5-yl)-[1,2,4]triazine] and `CC(C)C[C@H]1CN(c2cnnc(-c3ccc4[nH]nc(Cl)c4c3)n2)CCN1` [Compound 64, 3-(3-chloroindazol-5-yl)-5-[(S)-3-isobutylpiperazin-1-yl]-[1,2,4]triazine] are within 1.5-fold of each other in IC50: 5.7 nM for the first, 6.1 nM for the second.

same assay, conditions: read-out: IC50 rating (AKT1 inhibition)

`Cc1n[nH]c2ccc(-c3nnc(Cl)c(N4CCN5CCCC5C4)n3)cc12` (stereo not drawn) [Compound 31, 6-chloro-5-(1,4-diazabicyclo[4.3.0]non-1-yl)-3-(3-methylindazol-5-yl)-[1,2,4]triazine] and `Cc1n[nH]c2ccc(-c3nnc(Cl)c(N4CCN5CCCCC5C4)n3)cc12` (stereo not drawn) [Compound 32] cannot be ordered by IC50: > 1000 nM for the first, > 1000 nM for the second.

`Cc1n[nH]c2ccc(-c3nncc(N4CCCC(N)C4)n3)cc12` (stereo not drawn) [Compound 33, 5-(3-aminopiperidin-1-yl)-3-(3-methylindazol-5-yl)-[1,2,4]triazine] and `Cc1n[nH]c2ccc(-c3nncc(N4CCC(N)C4)n3)cc12` (stereo not drawn) [Compound 37, 5-(3-aminopyrrolidin-1-yl)-3-(3-methylindazol-5-yl)-[1,2,4]triazine] fall in the same range of IC50: 100 to 1000 nM for the first, 100 to 1000 nM for the second.

First: Cc1n[nH]c2ccc(-c3nnc(Cl)c(N4CCCC(N)C4)n3)cc12 (stereo not drawn) [Compound 34, 5-(3-aminopiperidin-1-yl)-6-chloro-3-(3-methylindazol-5-yl)-[1,2,4]triazine]
Second: Cc1n[nH]c2ccc(-c3nnc(Cl)c(N4CCC(N)C4)n3)cc12 (stereo not drawn) [Compound 38, 5-(3-aminopyrrolidin-1-yl)-6-chloro-3-(3-methylindazol-5-yl)-[1,2,4]triazine]
The IC50 of the first is higher: 100 to 1000 nM for the first, < 100 nM for the second.

Compared with `Cc1n[nH]c2ccc(-c3nncc(N4CCCC(CN)C4)n3)cc12` (stereo not drawn) [Compound 35, 5-(3-aminmethylopiperidin-1-yl)-3-(3-methylindazol-5-yl)-[1,2,4]triazine], `Cc1n[nH]c2ccc(-c3nnc(Cl)c(N4CCCC(CN)C4)n3)cc12` (stereo not drawn) [Compound 36, 5-(3-aminmethyiopiperidin-1-yl)-6-chloro-3-(3-methylindazol-5-yl)-[1,2,4]triazine] is lower in IC50: > 1000 nM for the first, 100 to 1000 nM for the second. The second is the more potent here.

`COC(=O)C1CN(c2cnnc(-c3ccc4[nH]nc(C)c4c3)n2)CCN1` (stereo not drawn) [Compound 39] and `COC(=O)C1CN(c2nc(-c3ccc4[nH]nc(C)c4c3)nnc2Cl)CCN1` (stereo not drawn) [Compound 40] cannot be ordered by IC50: > 1000 nM for the first, > 1000 nM for the second.

First: Cc1n[nH]c2ccc(-c3nncc(N4CCNC5(CCCC5)C4)n3)cc12 [Compound 41, 5-(6,9-diaza-spiro[4.5]dec-9-yl)-3-(3-methylindazol-5-yl)-[1,2,4]triazine]
Second: Cc1n[nH]c2ccc(-c3nncc(N4CCNC5(CCCCC5)C4)n3)cc12 [Compound 44, 5-(1,4-diaza-spiro[5.5]undec-4-yl)-3-(3-methylindazol-5-yl)-[1,2,4]triazine]
The IC50 of the first is higher: 100 to 1000 nM for the first, < 100 nM for the second. The second is the more potent here.

`Cc1n[nH]c2ccc(-c3nncc(N4CCN[C@H](c5ccccc5)C4)n3)cc12` [Compound 42, 3-(3-methylindazol-5-yl)-5-[(R)-3-phenylpiperazin-1-yl]-[1,2,4]triazine] and `Cc1n[nH]c2ccc(-c3nnc(Cl)c(N4CCN[C@H](c5ccccc5)C4)n3)cc12` [Compound 43, 6-chloro-3-(3-methylindazol-5-yl)-5-[(R)-3-phenylpiperazin-1-yl]-[1,2,4]triazine] fall in the same range of IC50: 100 to 1000 nM for the first, 100 to 1000 nM for the second.

`Cc1n[nH]c2ccc(-c3nncc(N4CCNC(Cc5ccc(F)cc5)C4)n3)cc12` (stereo not drawn) [Compound 45, 5-[3-(4-fluorobenzyl)piperazin-1-yl]-3-(3-methylindazol-5-yl)-[1,2,4]triazine] and `Cc1n[nH]c2ccc(-c3nncc(N4CCNC(Cc5cccc(F)c5)C4)n3)cc12` (stereo not drawn) [Compound 47, 5-[3-(3-fluorobenzyl)piperazin-1-yl]-3-(3-methylindazol-5-yl)-[1,2,4]triazine] cannot be ordered by IC50: < 100 nM for the first, < 100 nM for the second.

`Cc1n[nH]c2ccc(-c3nncc(N4CCNCC4)n3)cc12` [Compound 46, 3-(3-methylindazol-5-yl)-5-(piperazin-1-yl)-[1,2,4]triazine] and `Cc1n[nH]c2ccc(-c3nncc(N4CCNC(Cc5cccnc5)C4)n3)cc12` (stereo not drawn) [Compound 57, 3-(3-Methylindazol-5-yl)-5-[3-(pyridin-3-ylmethyl)piperazin-1-yl]-[1,2,4]triazine] fall in the same range of IC50: 100 to 1000 nM for the first, 100 to 1000 nM for the second.

First: Cc1n[nH]c2ccc(-c3nncc(N4CCNC(Cc5ccccc5F)C4)n3)cc12 (stereo not drawn) [Compound 48, 5-[3-(2-fluorobenzyl)piperazin-1-yl]-3-(3-methylindazol-5-yl)-[1,2,4]triazine]
Second: Cc1n[nH]c2ccc(-c3nncc(N4CCNC(Cc5ccccn5)C4)n3)cc12 (stereo not drawn) [Compound 58, 3-(3-methylindazol-5-yl)-5-[3-(pyridin-2-ylmethyl)piperazin-1-yl]-[1,2,4]triazine]
The IC50 of the first is lower: < 100 nM for the first, > 1000 nM for the second.

Compared with `c1ccc(CNc2nnc(-c3ccc4[nH]nc(-c5ccccc5)c4c3)nc2N2CCNCC2)cc1` [Compound 53, 6-Benzylamino-3-(3-phenylindazol-5-yl)-5-(piperazin-1-yl)-[1,2,4]triazine], `Cc1n[nH]c2ccc(-c3nncc(N4CCNC(Cc5ccccc5)(Cc5ccccc5)C4)n3)cc12` [Compound 54, 5-(3,3-dibenzylpiperazin-1-yl)-3-(3-methylindazol-5-yl)-[1,2,4]triazine] is lower in IC50: > 1000 nM for the first, 100 to 1000 nM for the second.

`c1ccc(C[C@H]2CN(c3cnnc(-c4ccc5[nH]ncc5c4)n3)CCN2)cc1` [Compound 55, 5-[(S)-3-benzylpiperazin-1-yl]-3-indazol-5-yl-[1,2,4]triazine] and `Clc1n[nH]c2ccc(-c3nncc(N4CCN[C@@H](Cc5ccccc5)C4)n3)cc12` [Compound 56, 5-[(S)-3-benzylpiperazin-1-yl]-3-(3-chloroindazol-5-yl)-[1,2,4]triazine] cannot be ordered by IC50: < 100 nM for the first, < 100 nM for the second.

`Cc1n[nH]c2ccc(-c3nncc(N4CCCC(Cc5ccccc5)C4)n3)cc12` (stereo not drawn) [Compound 59, 5-(3-benzylpiperidin-1-yl)-3-(3-methylindazol-5-yl)-[1,2,4]triazine] and `Cc1n[nH]c2ccc(-c3nncc(N4CCN(CCO)[C@@H](Cc5ccccc5)C4)n3)cc12` [Compound 60, 5-[(S)-3-benzyl-4-hydroxyethyl-piperazin-1-yl]-3-(3-methylindazol-5-yl)-[1,2,4]triazine] fall in the same range of IC50: 100 to 1000 nM for the first, 100 to 1000 nM for the second.

`CC(C)C[C@H]1CN(c2cnnc(-c3ccc4[nH]ncc4c3)n2)CCN1` [Compound 61, 3-indazol-5-yl-5-[(S)-3-isobutylpiperazin-1-yl]-[1,2,4]triazine] and `CC(C)C[C@H]1CN(c2cnnc(-c3ccc4[nH]nc(Cl)c4c3)n2)CCN1` [Compound 64, 3-(3-chloroindazol-5-yl)-5-[(S)-3-isobutylpiperazin-1-yl]-[1,2,4]triazine] cannot be ordered by IC50: < 100 nM for the first, < 100 nM for the second.

First: CCOC(=O)C1(Cc2ccccc2)CCCN(c2cnnc(-c3ccc4[nH]nc(C)c4c3)n2)C1 (stereo not drawn) [Compound 62, 5-(3-benzyl-3-ethoxycarbonylpiperidin-1-yl)-3-(3-methylindazol-5-yl)-[1,2,4]triazine]
Second: COC(=O)C1(Cc2ccccc2)CCCN(c2cnnc(-c3ccc4[nH]nc(C)c4c3)n2)C1 (stereo not drawn) [Compound 66]
The IC50 of the first is lower: 100 to 1000 nM for the first, > 1000 nM for the second. The first is the more potent here.

First: Cc1n[nH]c2ccc(-c3nncc(N4CCCC(CO)(Cc5ccccc5)C4)n3)cc12 (stereo not drawn) [Compound 63]
Second: Cc1n[nH]c2ccc(-c3nncc(N4CCCC(Cc5ccccc5)(C(=O)O)C4)n3)cc12 (stereo not drawn) [Compound 65]
The IC50 of the first is lower: 100 to 1000 nM for the first, > 1000 nM for the second. The first is the more potent here.

Compared with `Nc1n[nH]c2ccc(-c3nncc(N4CCN[C@@H](Cc5ccccc5)C4)n3)cc12` [Compound 67, 3-(3-aminoindazol-5-yl)-5-[(S)-3-benzylpiperazin-1-yl]-[1,2,4]triazine], `Cc1n[nH]c2ccc(-c3nncc(N4CCNC(Cc5ccncc5)C4)n3)cc12` (stereo not drawn) [Compound 68, 3-(3-methylindazol-5-yl)-5-[3-(pyridin-4-ylmethyl)piperazin-1-yl]-[1,2,4]triazine] is lower in IC50: > 1000 nM for the first, 100 to 1000 nM for the second.
